The test system of assay [1] is superoxide anion signal from PMA-stimulated human polymorphonuclear leukocytes (PMNs). Briefly: Direct superoxide anion scavenging by EPR spectroscopy (DEPMPO spin trap) in PMA-stimulated isolated human neutrophils. Format: cell-based. The conditions noted are these: millimolar range, water. How it is done:
Leukocyte Isolation and Preparation. Human polymorphonuclear leukocytes (PMNs) were isolated from freshly sampled venous blood of a single volunteer by Percoll density gradient centrifugation as described previously. Briefly, each 10 mL of whole blood was mixed with 0.8 mL of 0.1 M EDTA and 25 mL of saline. The diluted blood was then layered over 9 mL of Percoll at a specific density of 1.080 g/mL. After centrifugation at 400×g for 20 min at 20° C., the plasma, mononuclear cell, and Percoll layers were removed. Erythrocytes were subsequently lysed by addition of 18 mL of ice-cold water for 30 s, followed by 2 mL of 10×PIPES buffer (25 mM PIPES, 110 mM NaCl, and 5 mM KCl, titrated to pH 7.4 with NaOH). […] Afterward, PMNs were counted by light microscopy on a hemocytometer. […]
EPR Measurements. […] The microwave frequency was measured with a Model 575 microwave counter (EIP Microwave, Inc., San Jose, Calif.). […]
Instrument settings used in the spin-trapping experiments were as follows: modulation amplitude, 0.32 G; time constant, 0.16 s; scan time, 60 s; modulation frequency, 100 kHz; microwave power, 20 milliwatts; and microwave frequency, 9.76 GHz. The samples were placed in a quartz EPR flat cell, and spectra were recorded. The component signals in the spectra were identified and quantified as reported previously.

For assay [2], the system named is mouse heart (myocardium) redox status. The assay is described as follows: Whole-body time-course PEDRI of TEMPONE nitroxide decay in the myocardial region of treated mice. Format: in vivo. The following applies: 10 mg/kg daily I.V. for 4 days, TEMPONE probe. The text has this:
Proton electron double resonance imaging (PEDRI) is a recently developed low-field double magnetic resonance technique (Lurie et al. 2002). The technique uses the Overhauser effect to image the distribution of free radicals in biological samples. Of particular interest is that the technique can be extended to whole animals, allowing systemic redox state analysis as well as individual target organ analysis after therapeutic treatment. The in vivo application of the technique requires a balance between the electron paramagnetic resonance (EPR) irradiation frequency and the magnetic field applied: sufficiently low magnetic field must be utilized that allows penetration of the whole animal, while at the same time limiting nonresonant power deposition in the animal. […]
After the mice were placed in the PEDRI resonator, a bolus injection of 0.55-0.6 mL (normalized to the body weight of the individual animal) of 100 mM TEMPONE solution in PBS was given over 50-55 s through the tail vein. A series of time-course PEDRI measurements were then acquired every 10-15 s after the injection of the nitroxide probe solution, until the image intensity reached a minimum (i.e., no nitroxide signal could be detected). […]

Turning to “3,3′-Diphosphoryloxy-β,ε-carotene sodium salt [compound 9]”, the “aqueous superoxide scavenging profile (in words)” value in assay [1] was “slightly increased scavenging”.

Regarding `CC1=C(/C=C/C(C)=C/C=C/C(C)=C/C=C/C=C(C)/C=C/C=C(C)/C=C/C2=C(C)C(=O)C(OC(=O)CCC(=O)O)CC2(C)C)C(C)(C)CC(OC(=O)CCC(=O)O)C1=O` (stereo not drawn) [Cardax™, disodium disuccinate derivative of synthetic astaxanthin], the “rate of nitroxide reduction in the mouse heart compared to untreated control animals” value in assay [2] was “slower mean rate of nitroxide reduction”. For the same compound, the “half-time (t) for the decay of the nitroxide signal intensity, myocardial region” value in assay [2] (mean±SEM, n=4, untreated 0.49±0.08) came to 0.99 ± 0.14 min.

Values taken from patent US20070238793A1, “Structural carotenoid analogs or derivatives for the modulation of systemic and/or target organ redox status” (priority 2005, published 2007).
